# Laboratory results as given in patent US11419869B2, “Dosage forms and regimens for amino acid compounds” (Pliant Therapeutics, Inc., priority 2019, dated 2022).
# How the values were obtained:
# [1] = test system: IPF-derived lung fibroblasts; experiment: cell adhesion in IPF-derived lung fibroblasts (FIG. 3B); format: cell-based
# [2] = target: recombinant human integrin αvβ6 (Homo sapiens (Human), UniProt P06756+P18564); experiment: Solid Phase Integrin αvβ6 Binding Assay (Examples B1, B2); settings: TGFβ1 LAP ligand, values given in four ranges, read-out: αvβ6 Inhibition IC50 (nM)-range
# Sequence of recombinant human integrin αvβ6 (P06756 31-992): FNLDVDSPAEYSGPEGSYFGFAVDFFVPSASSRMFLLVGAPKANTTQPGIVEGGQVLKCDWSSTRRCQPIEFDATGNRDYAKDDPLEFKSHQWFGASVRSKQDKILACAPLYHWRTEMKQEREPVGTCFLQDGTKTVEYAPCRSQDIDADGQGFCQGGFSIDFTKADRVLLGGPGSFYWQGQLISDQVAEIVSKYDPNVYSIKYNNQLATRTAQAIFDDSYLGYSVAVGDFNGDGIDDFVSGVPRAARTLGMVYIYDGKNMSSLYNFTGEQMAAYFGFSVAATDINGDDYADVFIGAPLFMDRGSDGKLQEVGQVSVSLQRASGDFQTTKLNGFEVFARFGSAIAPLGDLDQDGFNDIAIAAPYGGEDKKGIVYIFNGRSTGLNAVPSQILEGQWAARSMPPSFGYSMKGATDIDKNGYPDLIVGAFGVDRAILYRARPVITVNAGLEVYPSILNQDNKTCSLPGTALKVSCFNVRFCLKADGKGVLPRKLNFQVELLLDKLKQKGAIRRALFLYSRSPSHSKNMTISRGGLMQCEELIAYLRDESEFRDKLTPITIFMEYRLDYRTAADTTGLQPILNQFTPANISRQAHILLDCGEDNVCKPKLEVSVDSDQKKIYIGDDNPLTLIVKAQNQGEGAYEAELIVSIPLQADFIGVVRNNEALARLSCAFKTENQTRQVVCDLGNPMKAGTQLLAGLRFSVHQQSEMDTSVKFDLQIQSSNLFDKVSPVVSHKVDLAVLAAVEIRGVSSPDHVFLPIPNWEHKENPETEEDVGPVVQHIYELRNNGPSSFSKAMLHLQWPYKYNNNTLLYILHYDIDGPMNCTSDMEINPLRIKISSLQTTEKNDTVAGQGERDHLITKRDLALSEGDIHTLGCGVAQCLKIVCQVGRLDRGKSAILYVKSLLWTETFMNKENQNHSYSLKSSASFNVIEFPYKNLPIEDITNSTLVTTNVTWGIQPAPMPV
# Sequence of recombinant human integrin αvβ6 (P18564 22-707): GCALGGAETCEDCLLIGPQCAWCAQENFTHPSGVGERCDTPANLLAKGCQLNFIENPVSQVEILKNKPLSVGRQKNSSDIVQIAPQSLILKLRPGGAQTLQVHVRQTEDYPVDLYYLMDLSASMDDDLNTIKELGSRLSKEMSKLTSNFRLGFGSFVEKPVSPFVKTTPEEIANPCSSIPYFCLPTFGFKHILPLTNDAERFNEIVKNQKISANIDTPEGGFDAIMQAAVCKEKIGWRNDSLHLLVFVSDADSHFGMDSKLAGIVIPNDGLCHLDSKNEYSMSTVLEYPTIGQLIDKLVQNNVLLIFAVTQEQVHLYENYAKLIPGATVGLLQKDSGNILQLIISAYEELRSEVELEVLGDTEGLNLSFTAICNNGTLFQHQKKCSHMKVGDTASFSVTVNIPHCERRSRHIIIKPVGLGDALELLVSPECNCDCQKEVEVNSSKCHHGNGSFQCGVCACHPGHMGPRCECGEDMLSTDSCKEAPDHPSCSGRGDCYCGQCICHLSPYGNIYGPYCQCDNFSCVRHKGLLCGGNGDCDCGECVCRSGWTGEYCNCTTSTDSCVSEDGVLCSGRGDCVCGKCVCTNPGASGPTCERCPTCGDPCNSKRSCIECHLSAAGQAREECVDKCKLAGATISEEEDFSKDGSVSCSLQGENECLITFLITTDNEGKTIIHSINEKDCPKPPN
# How it was run: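 Plates coated with recombinant human αvβ6 (2 μg/mL) compete compound against recombinant TGFβ1 LAP (0.67 μg/mL) in TBS binding buffer with 0.5 mM MnCl2, 2 h at 25 °C. Bound LAP detected with biotin-anti-hLAP and peroxidase-streptavidin; IC50 by four-parameter logistic regression.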
# SMAD3 phosphorylation = experiment: PSMAD3/SMAD3 in healthy mice treated for 4 days; format: in vivo; settings: 4 days of treatment
# Source text: It has been previously shown that inhibition of αvβ6 in the lung can be detected though measurement of phospho-SMAD (pSMAD) in alveolar macrophages. Alveolar macrophages are known to operate in a unique niche in the lung, distinct from interstitial macrophages. SMAD3 is a downstream target of the active TGF-β cytokine binding its receptor and in alveolar macrophages it is phosphorylated by homoeostatic levels of TGF-β. Accordingly, it was desirable to know whether inhibition of TGF-β activation using the disclosed compounds would result in reduced SMAD2 and SMAD3 phosphorylation.
# FIG. 4A is a graph of PSMAD3/SMAD3 in lung tissue from healthy mice administered PBS vehicle and varying levels of compound 5 for 4 days. FIG. 4B is a graph of PSMAD3/SMAD3 in BALF drawn from the same healthy mice administered PBS vehicle and varying levels of compound 5 for 4 days.
# Mice (C57BL/6) = experiment: Murine bleomycin model (Example B7); format: in vivo
# Procedure: Mice (C57BL/6) were divided into healthy (n=15), vehicle-treated (n=15), and test article-treated (n=15 per dose) groups. Mice in the vehicle and test article-treated groups were administered 3 U/kg of bleomycin (Teva Pharmaceuticals; North Wales, Pa.) via oropharyngeal aspiration while under anesthesia on day 0. Healthy animals were administered water in a similar fashion. Starting on day 7, mice in the control group were administered PBS vehicle, 130 μL, by oral gavage, BID for 14 days. Also starting on day 7, mice in the test group were administered compound 5 in PBS by oral gavage, BID for 14 days, at relative dosages of 1×, 2.5× and 5×. […] From day 14 through day 21, 9 of the 15 mice were administered ^2H2O for labeling. All mice were sacrificed on day 21 and tissues were collected. Samples were prepared for analysis either directly from lung tissue, or by bronchoalveolar lavage, which washes out the bronchiolar and alveolar space with saline to produce a bronchoalveolar lavage fluid (BALF) in which 80-90% of cells are alveolar macrophages.
# FIG. 4C is a graph showing that compared to the healthy mice, lung tissue in the vehicle-treated mice experienced a substantial increase in SMAD3 phosphorylation, which is a measure of TGF-β signaling-related kinase activity. […] FIG. 4D is a graph showing that compared to the healthy mice, lung tissue in the vehicle-treated mice experienced a substantial accumulation of new collagen as evidenced by the percentage of lung collagen containing ^2H-labeled hydroxyproline.
# FIGS. 4F, 4G, and 4H show high resolution second harmonic generation images of fibrillar collagen (collagen type I and III) taken from formalin-fixed paraffin embedded lung tissue sections from a healthy mouse lung (4F), a vehicle-treated mouse lung (4G) and a test-article treated mouse lung (4H; 500 mg/kg BID). Color scale is indicative of collagen fiber density (red=most dense; blue=least dense).
# FIG. 4I is a graph showing the percent total collagen area in the second harmonic generation mouse lung images. Large structural areas of collagen found similarly in healthy and fibrotic tissues (dense collagen fibers surrounding airways were excluded from this analysis to focus on interstitial fibrotic collagen). […] The 1×, 2.5×, and 5× dosages were at the same absolute values in mg/kg as in Example B7.
# The data for FIGS. 4J and 4K, was obtained 14 days after bleomycin challenge in mice were treated with compound 5 at 2.5× dose (PO, BID for 1.5 days).
# [3] = SAD and MAD first-in-human pharmacokinetic studies (Example B12); format: in vivo
# Procedure: Healthy human subjects (N=85) were selected for single ascending dose (SAD) and multiple ascending dose (MAD) first-in-human studies. A solution for oral administration was prepared, containing 10 mg/mL of compound 5 in a 50:50 mixture of ORA-SWEET® SF (PERRIGO®, Allegan, Mich.) and sterile water for irrigation. Sufficient solution was administered orally to the subjects to provide between 15 mg/dose and 75 mg/dose of compound 5 in the SAD study and between 10 mg/dose and 40 mg/dose of compound 5 in the MAD study. Concentrations of compound 5 were measured in the subjects by obtaining a sample of plasma from each subject at desired intervals, and subjecting the plasma to liquid chromatography-mass spectrometry-mass spectrometry (LC-MS/MS), with quantification using a calibration curve determined from a range of solutions at standardized concentrations. The lower limit of quantitation (LLOQ) of the assay was 1 ng/mL and the calibration curve range was 1 to 500 ng/mL.
structure (smiles),measurement,setting,value
"COCCN(CCCCc1ccc2c(n1)NCCC2)CC[C@H](Nc1ncnc2ccccc12)C(=O)O [Compound 5, (S)-4-((2-methoxyethyl) (4-(5,6,7,8-tetrahydro-1,8-naphthyridin-2-yl)butyl)amino)-2-(quinazolin-4-ylamino) butanoic acid]",cell adhesion in the IPF-derived lung fibroblasts,[1],substantially inhibited
same,IC50,[2],< 50 nM
same,PSMAD3/SMAD3 in lung tissue,SMAD3 phosphorylation; FIG. 4A,approximately 50 % of the untreated levels
same,PSMAD3/SMAD3 in BALF,"SMAD3 phosphorylation; cells isolated from BALF, FIG. 4B",approximately 50 % of the untreated levels
same,pSMAD3 levels in lung and BALF cells vs. plasma drug exposure,"Mice (C57BL/6); 14 days after bleomycin, […] dose PO BID for 1.5 days, FIGS. 4J, 4K",close inverse relationship
same,percent total collagen area in second harmonic generation lung images,"Mice (C57BL/6); bleomycin mice, 1× (p<0.05), […] (p<0.01), 5× (p<0.0001 vs vehicle), FIG. 4I","substantial, statistically significant dose-dependent reduction"
same,accumulated new collagen (percentage of lung collagen containing 2H-labeled hydroxyproline),"Mice (C57BL/6); bleomycin mice, 1× and 5× (p<0.01 vs vehicle), FIG. 4D",dose-dependent reduction
same,"total pulmonary collagen, as measured by μg of hydroxyproline","Mice (C57BL/6); bleomycin mice, 1×, […], 5× (p<0.05 vs vehicle), FIG. 4E",reduction in total pulmonary collagen
same,SMAD3 phosphorylation in lung tissue,"Mice (C57BL/6); bleomycin mice, oral gavage BID 14 days at 1×, […], 5×, vs vehicle, FIG. 4C","substantial, statistically significant dose-dependent reductions"
same,pSMAD3 levels in the lung,"Mice (C57BL/6); bleomycin mice, time- and dose-dependent inhibition",approximately 50 % of the untreated levels
same,oral bioavailability and pharmacokinetics,[3]; healthy subjects,good oral bioavailability and pharmacokinetics
same,half-life,"[3]; plasma, healthy human subjects, oral solution, SAD 15-75 mg, MAD 10-40 mg, read-out: calculated half life",18 to 20 h
